# Where “and” joins values, the source holds several entries; their conditions need not be identical. Equal values may be shown once. Read-outs that look alike come from different tables or passages of the source.
# How the values were obtained:
# BAF complex = BAF complex target gene expression (IL-10, SOCS3, CBX7; control B-ACT) by RT-qPCR in participants; type: in vivo, human
# Source text: We reasoned that the effect on the expression of these gene targets at later time points (days 14 and 42) would be less useful as specific biomarker of BAF complex inhibition due to treatment interruptions and potential induction via other pathways. […] These findings are consistent with, and might be the consequence of, the generally lower plasma pyrimethamine Ctrough in participants that received the combined intervention regimen compared to those that received solely pyrimethamine.
# RT-qPCR reactions were conducted using GoTaq qPCR Master Mix (Promega) following the manufacturer’s protocol. The following thermal cycling protocol was used for amplification: 3 min at 95°C, followed by 40 cycles of 95°C for 10 s and 60°C for 30 s. Expression data were calculated using the 2^−∆∆Ct methodology ([73]). Cyclophilin A was used as a housekeeping gene for the analysis. The list of primers is available in table S9.
# [1] = parameters: method as in PMID 22837004; details: assumed for the sampling design; fasted first dose; cited from earlier work
# [2] = Plasma drug concentrations (pyrimethamine UPLC-MS/MS, VPA assay, unbound dolutegravir) in trial participants; type: in vivo, human; details: for concentration at 6 h / concentration at 14 day: human, plasma, oral; for concentration at 14 day: day 14
# Protocol: Self-reported adherence was assessed at each study visit, and empty pill strips were collected after the 2-week intervention phase. […] A gradient (0.3 ml/min) with two eluents was used (A: 2 mM ammonium acetate + 0.1% formic acid in water; B: 2 mM ammonium acetate + 0.1% formic acid in methanol). […] For measurement validation, we performed linearity, correctness, LOD and lower LOQ, repeatability, reproducibility, measurement uncertainty, robustness, and carryover. […] Unbound dolutegravir plasma concentrations were quantified with a validated UPLC-MS/MS bioquantification method as previously described ([61]).
# HIV-1 = details: for Median fold change in CA US HIV-1 RNA from baseline: pyrimethamine monotherapy excluding LUNA-10 who stopped
# Protocol: Because of low cell numbers in the baseline sample, LUNA-06 (combination arm, participant stopped at day 7) was excluded from this primary end point analysis.
# For quantification of CA US HIV-1 RNA, CD4^+ T cells were isolated from peripheral blood mononuclear cells (PBMCs) by negative selection using EasySep Human CD4^+ T Cell Enrichment Cocktail ([…] Technologies). Isolation of CD4^+ T cells was performed on ice or at 4°C (unless indicated otherwise by the manufacturer). Approximately 1.5 × 10^6 CD4^+ T cells were lysed in triplicate with TRI reagent. Total RNA was isolated by the phenol/chloroform isolation method following the manufacturer’s instructions. A minimum of 150 ng of total RNA was deoxyribonuclease (DNase)–treated following the manufacturer’s instructions (DNase I, Amplification Grade, Invitrogen), and complementary DNA (cDNA) synthesis was performed in duplicate with SuperScript II (Invitrogen) following the manufacturer‘s instructions. Absolute quantification of CA US HIV-1 RNA was performed following a modified version of Pasternak et al. methodology ([72]). Briefly, the first round of nested amplification was performed in a final volume of 25 μl using 10 μl of cDNA, 2.5 μl of 10× PCR buffer (Life Technologies), 1 μl of 50 mM MgCl2 (Life Technologies), 1 μl of 10 mM deoxynucleotide triphosphate (dNTP) (Life Technologies), 0.075 μl of 100 μM US forward primer, 0.075 μl of 100 μM US reverse 1 primer, and 0.2 μl of Platinum Taq polymerase (Life Technologies) at 95°C for 5 min, followed by 15 cycles at 95°C for 30 s, 55°C for 30 s, and 72°C for […]. The second round of amplification was performed in a final volume of 25 μl using 2 μl of preamplified cDNA, 2.5 μl of […] PCR buffer (Life Technologies), 1 μl of 50 mM MgCl2 (Life Technologies), 1 μl of 10 mM dNTPs (Life Technologies), 0.05 μl of 100 μM US forward primer, 0.05 μl of 100 μM US reverse 2 primer, 0.0375 μl of US probe, and 0.2 μl of Platinum Taq polymerase (Life Technologies) at 95°C for 5 min, followed by 45 cycles at 95°C for 30 s and 60°C for 1 min. The list of primers and probe is available in table S9. The absolute number of US copies in the PCR was calculated using a standard curve ranging from 2 to 512 copies of a plasmid containing the full-length HIV-1 genome (pNL4.3.Luc.R-E-). […] The quantity of CA US HIV-1 RNA was expressed as the number of copies per 150 ng of input RNA in reverse transcription.
# The measurements related to the end points CA US HIV-1 RNA, MS HIV-1 RNA, plasma HIV-1 RNA, and drug plasma levels were described as median with IQR or full range. […] The fold change difference per study arm from pretreatment CA US HIV-1 RNA levels to the time points 6 hours, day 14, and day 42 after first dosing was calculated by adding up the fold change per individual divided by the total number of measurements available per time point. We analyzed the primary end point by a generalized estimating equation model to evaluate whether any difference in the CA US HIV-1 RNA existed at any time point during the trial in any of the three interventional arms compared to the control arm. An interaction term of time and treatment was included. […] The difference between the observed and expected amount of CA US HIV-1 RNA was calculated, and combination therapy was considered synergistic if the difference and its 95% confidence interval were >0. Because of the number of participants in this pilot, all secondary end points were exploratory.
# [3] = day 0, 6 hours after first dose relative to pretreatment, arm median
# [4] = individual participants, one value each, listed as PYR
# [5] = individual participants, one value each, below LOQ imputed as 16, listed as PYR
compound,measurement,setting,value
CCc1nc(N)nc(N)c1-c1ccc(Cl)cc1 [pyrimethamine],"Fold-induction in B-ACTIN gene expression at Day 0, 6 hours relative to Day 0, pretreatment","BAF complex; control gene, individual participants, one value each, listed as PYR",1.29 and 1.51 and 0.82 and 0.94 (2×) and 0.86 and 1.04
same,Median fold increase in CBX7 gene expression,BAF complex; [3],1.68 fold
same,Median fold increase in IL-10 gene expression,BAF complex; [3],2.55 fold
same,Median fold increase in SOCS3 gene expression,BAF complex; [3],2.53 fold
same,"Fold-induction in CBX7 gene expression at Day 0, 6 hours relative to Day 0, pretreatment",BAF complex; [4],1.68 and 1.12 and 12.42 and 4.23 and 2.02 and 1.25 and 1.03
same,"Fold-induction in IL-10 gene expression at Day 0, 6 hours relative to Day 0, pretreatment",BAF complex; [4],2.24 and 2.74 and 1.48 and 1.74 and 6.66 and 6.4 and 2.54
same,"Fold-induction in SOCS3 gene expression at Day 0, 6 hours relative to Day 0, pretreatment",BAF complex; [4],2.52 and 2.27 and 0.60 and 4.59 and 5.35 and 1.14 and 3.27
same,Tmax,[1],approximately 4 hours
same,Median plasma concentration of pyrimethamine with CYP3A inducers,[2]; PLWH on efavirenz- or nevirapine-containing cART,did not have lower
same,Drug detectable in plasma,[2]; day 42 (28 days after end of treatment),No pyrimethamine or VPA was detectable
same,concentration at 6 h,"[2]; 200 mg, Median plasma total pyrimethamine concentration, 6 hours after first dose (200 mg), pyrimethamine alone, seven participants",1630 ng/mL
same,concentration at 6 h,"[2]; 200 mg, Median pyrimethamine Ctrough by integrase inhibitor exposure, 6 hours, group printed first of 'versus' pair",1300 ng/mL
same,concentration at 6 h,"[2]; 200 mg, Median pyrimethamine Ctrough by integrase inhibitor exposure, 6 hours, group printed second of 'versus' pair",1400 ng/mL
same,concentration at 6 h,"[2]; Median plasma total pyrimethamine concentration, 6 hours after first dose, combination arm with VPA",1160 ng/mL
same,concentration at 14 day,"[2]; Median pyrimethamine Ctrough by integrase inhibitor exposure, uninterrupted pyrimethamine, group printed first",2800 ng/mL
same,concentration at 14 day,"[2]; Median pyrimethamine Ctrough by integrase inhibitor exposure, uninterrupted pyrimethamine, group printed second",3200 ng/mL
same,concentration at 14 day,"[2]; Median pyrimethamine Ctrough, combination arm with VPA, four PLWH with uninterrupted exposure",1990 ng/mL
same,concentration at 14 day,"[2]; Median pyrimethamine Ctrough, monotherapy arm, six PLWH with uninterrupted exposure",3480 ng/mL
same,concentration at 14 day,"[2]; Pyrimethamine plasma level, individual, LUNA-21 (combination arm), stopped treatment at day 10",2520 ng/mL
same,Mean fold change in CA US HIV-1 RNA,"HIV-1; 6 hours after first dose, arm mean",2.11 fold
same,PLWH with increased CA US HIV-1 RNA (responders),HIV-1; 6 hours after the first dose,six of seven
same,Median fold change CA US HIV-1 RNA,"HIV-1; after 6 hours, the two arms exposed to pyrimethamine pooled (with and without VPA)",1.8 fold
same,"Median fold change in CA US HIV-1 RNA (normalized to day 0, 0 hours)","HIV-1; day 0, t = 0 hours (pretreatment baseline, normalisation point)",1 fold
same,"Median fold change in CA US HIV-1 RNA (normalized to day 0, 0 hours)","HIV-1; day 0, t = 6 hours after first dose, arm median, PLWH on cART, oral PYR 200 mg day 1 then 100 mg once daily, VPA 30 mg/kg per day",2.1073 fold
same,"Median fold change in CA US HIV-1 RNA (normalized to day 0, 0 hours)","HIV-1; day 14 (end of treatment), arm median, PLWH on cART",1.9 fold
same,"Median fold change in CA US HIV-1 RNA (normalized to day 0, 0 hours)","HIV-1; day 14 (end of treatment), arm median, PLWH on cART, listed as Pyrimethamine",1.9129 fold
same,Median fold change in CA US HIV-1 RNA from baseline,HIV-1; day 14,1.8 fold
same,"Median fold change in CA US HIV-1 RNA (normalized to day 0, 0 hours)","HIV-1; day 42 (28 days after end of treatment), arm median, PLWH on cART",1.7 fold
same,"Median fold change in CA US HIV-1 RNA (normalized to day 0, 0 hours)","HIV-1; day 42 (28 days after end of treatment), arm median, PLWH on cART, listed as Pyrimethamine",1.6775 fold
same,Median fold change in CA US HIV-1 RNA from baseline,HIV-1; day 42,1.6 fold
same,"CA US HIVRNA copies/150 ng Total RNA Day 0, 6 hours",HIV-1; [5],"125,01 copies/150 ng Total RNA and 126,50 copies/150 ng Total RNA and 51,31 copies/150 ng Total RNA and 94,04 copies/150 ng Total RNA and 39,82 copies/150 ng Total RNA and 55,52 copies/150 ng Total RNA and 96,01 copies/150 ng Total RNA"
same,CA US HIVRNA copies/150 ng Total RNA Day 14,HIV-1; [5],"114,91 copies/150 ng Total RNA and 111,02 copies/150 ng Total RNA and 74,67 copies/150 ng Total RNA and 54,10 copies/150 ng Total RNA and 42,33 copies/150 ng Total RNA and 62,36 copies/150 ng Total RNA and 111,26 copies/150 ng Total RNA"
same,CA US HIVRNA copies/150 ng Total RNA Day 42,HIV-1; [5],"85,80 copies/150 ng Total RNA and 54,17 copies/150 ng Total RNA and 82,71 copies/150 ng Total RNA and 69,81 copies/150 ng Total RNA and 29,28 copies/150 ng Total RNA and 101,16 copies/150 ng Total RNA and 84,39 copies/150 ng Total RNA"
same,"CA US HIVRNA copies/150 ng Total RNA Day 0, pretreatment","HIV-1; individual participants, one value each, pretreatment baseline, below LOQ imputed as 16, listed as PYR","32,60 copies/150 ng Total RNA and 68,92 copies/150 ng Total RNA and 24,35 copies/150 ng Total RNA and 49,43 copies/150 ng Total RNA and 16,00 copies/150 ng Total RNA and 79,98 copies/150 ng Total RNA and 51,15 copies/150 ng Total RNA"

# Reference: article PMC10017042 (Science Advances, 2023)
